Experimental data published in patent US20170268001A1, “RNAS WITH TUMOR RADIO/CHEMO-SENSITIZING AND IMMUNOMODULATORY PROPERTIES AND METHODS OF THEIR PREPARATION AND APPLICATION” (THE UNIVERSITY OF CHICAGO, priority 2016, published 2017).

T1: RIG-I (Homo sapiens, UniProt O95786, K858A/K861A)
T1 construct: HEK293 cells overexpressing either the full length RIG-I; host or cells: HEK293; HCT116 also for the qRT-PCR validation
T1 sequence (O95786 1-925 K858A/K861A): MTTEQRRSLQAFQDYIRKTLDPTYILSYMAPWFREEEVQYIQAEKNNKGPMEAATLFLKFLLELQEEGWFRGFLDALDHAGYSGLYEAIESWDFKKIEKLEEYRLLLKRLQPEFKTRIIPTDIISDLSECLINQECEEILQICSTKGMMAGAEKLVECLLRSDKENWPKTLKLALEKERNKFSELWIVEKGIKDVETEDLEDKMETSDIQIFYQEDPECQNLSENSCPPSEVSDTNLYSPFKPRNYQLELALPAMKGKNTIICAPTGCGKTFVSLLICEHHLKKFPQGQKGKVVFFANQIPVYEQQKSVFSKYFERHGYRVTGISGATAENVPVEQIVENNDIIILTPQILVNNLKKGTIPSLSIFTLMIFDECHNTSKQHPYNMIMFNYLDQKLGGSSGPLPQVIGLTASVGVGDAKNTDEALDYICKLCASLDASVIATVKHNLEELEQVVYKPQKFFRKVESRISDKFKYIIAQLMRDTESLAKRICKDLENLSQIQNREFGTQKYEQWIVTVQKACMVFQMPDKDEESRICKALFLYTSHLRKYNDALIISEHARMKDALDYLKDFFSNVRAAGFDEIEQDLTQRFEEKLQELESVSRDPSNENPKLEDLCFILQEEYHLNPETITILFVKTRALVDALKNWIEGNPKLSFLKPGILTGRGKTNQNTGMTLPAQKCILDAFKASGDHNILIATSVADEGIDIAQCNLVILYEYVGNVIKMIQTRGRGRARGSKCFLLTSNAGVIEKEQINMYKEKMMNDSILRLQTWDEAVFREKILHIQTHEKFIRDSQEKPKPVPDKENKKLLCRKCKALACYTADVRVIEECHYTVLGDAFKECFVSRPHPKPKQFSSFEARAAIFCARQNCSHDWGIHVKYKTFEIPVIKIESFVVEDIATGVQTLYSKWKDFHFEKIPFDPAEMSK

B1: M5: rbRNA, RIG-I agonist, 81 nucleotides, SEQ ID NO:26 (nucleic acid)
chain: GACGAAGACCACAAAACCAGATAAAAAATTATTTTTTATCTGGTTTTGTGGTCTTCGTCTATAGTGAGTCGTATTAATTTC
modifications: listed as DNA, chemistry not given here

Biological target: T1, RIG-I
Assay: UV cross-linking with quantitative real-time PCR (CLIP-PCR) of RIG-I complexes
Assay type: binding
Protocol: Graphic representation indicating the distribution of non-coding and repetitive RNA molecules bound to RIG-I following exposure to IR as compared to total irradiated cellular RNA. Transcripts were mapped to reference genomes using RepeatMasker. See Methods for further details. […] Cells were UV crosslinked at 150 mJ/cm^2 48 hours post-IR treatment prior to cell lysis. […] FIG. 29H show IFN-b levels in culture supernatant from ICR RIG-I^+/+ and primary MEFs 24 hours post-stimulation with the same set of synthetic U1 oligonucleotides used in (FIG. 29G) The amount of U1 synthetic oligonucleotides used in all stimulation experiments was 1 μg. P values were determined using unpaired Student's t-test. Error bars are SEM. ***P<0.005.
Technically, identification of RNAs was performed as follows: HEK293 cells were transiently transfected with 3×FLAG-tagged full-size RIG-I in pEF-BOS vector (Addgene; Cambridge, Mass.). Twenty-four hours post-transfection, cells were either mock-irradiated or exposed to IR (6 Gy). Forty-eight hours post-IR, cells were lysed with a modified lysis buffer (50 mM Tris-Cl pH 7.5, 0.15 M NaCl, 0.1% NP-40, 1.0% Triton X-100, 1 mM EDTA pH8.0, 1 mM EGTA pH8.0, 10% Glycerol, 2.5 mM MgCl2, 1 mM DTT, 0.1 mM ATP, and 1× Halt Protease Inhibitor) and incubated on ice for 1 hour. Cell lysates were separated from cell debris by centrifugation at 12,000 rpm at 4° C. Protein concentration was measured by BCA kit. Anti-FLAG monoclonal antibody was added to the cell lysate at a 1:500 dilution, and incubated overnight at 4° C. Protein G sepharose beads were added to the lysates and incubated for at least 2 hours at 4° C. Beads containing the antibody-RIG-I complexes were washed five times in wash buffer (50 mM Tris-Cl pH 7.5, 0.15 M NaCl, 1 mM MgCl2, 0.05% NP-40, 1 mM DTT) and proteins were eluted from the beads using a soft elution buffer (0.5% SDS, 0.1% Tween-20, 50 mM Tris pH 8.0) for 10 minutes at room temperature with vortexing every 2-3 minutes. Proteinase K was added to the eluates and incubated at 50° C. for 45 minutes. Trizol reagent was then added to the solution, and RNA bound to RIG-I was purified following manufacturer's protocol. RNA quality was analyzed using an Agilent Bioanalyzer 2100 with Pico Series II cartridges. RNA yield was measured using the Qubit RNA Broad Range kit. For qRT-PCR validation experiments of RIG-I pulled down RNA, UV cross-linking (2 doses at 150 mJ/cm^2) was performed on HEK293 and HCT116 overexpressing RIG-I prior to cell lysis. The same protocol for pulldown and RNA purification experiments was performed as described above.

| Molecule | levels in RIG-I pulldown after IR (HEK293 overexpressing K858A-K861A RNA binding deficient mutant RIG-I) | binding to K858A-K861A RNA binding deficient mutant RIG-I (CLIP-PCR) |
| --- | --- | --- |
| U2: snRNA, SEQ ID NO:21 | did not detect increased levels | – |
| B1 | – | did not bind |
